Data from ChEMBL document CHEMBL1201862, “PubChem BioAssay data set” (2004).
The source made the active and inactive calls.

What was measured:
NADPH oxidase 1 = biological target: T1, NADPH oxidase 1 (Homo sapiens, UniProt Q9Y5S8); type: functional, cell-based;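 note: Cell-based assay with luminescence read-out, IC50 derived from inhibitor dose-response curves; intracellular ROS from endogenous NOX1 in intact HT29 colon cancer cells; potency of inhibitors that lower the ROS luminescence signal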
T1 sequence (Q9Y5S8 whole entry): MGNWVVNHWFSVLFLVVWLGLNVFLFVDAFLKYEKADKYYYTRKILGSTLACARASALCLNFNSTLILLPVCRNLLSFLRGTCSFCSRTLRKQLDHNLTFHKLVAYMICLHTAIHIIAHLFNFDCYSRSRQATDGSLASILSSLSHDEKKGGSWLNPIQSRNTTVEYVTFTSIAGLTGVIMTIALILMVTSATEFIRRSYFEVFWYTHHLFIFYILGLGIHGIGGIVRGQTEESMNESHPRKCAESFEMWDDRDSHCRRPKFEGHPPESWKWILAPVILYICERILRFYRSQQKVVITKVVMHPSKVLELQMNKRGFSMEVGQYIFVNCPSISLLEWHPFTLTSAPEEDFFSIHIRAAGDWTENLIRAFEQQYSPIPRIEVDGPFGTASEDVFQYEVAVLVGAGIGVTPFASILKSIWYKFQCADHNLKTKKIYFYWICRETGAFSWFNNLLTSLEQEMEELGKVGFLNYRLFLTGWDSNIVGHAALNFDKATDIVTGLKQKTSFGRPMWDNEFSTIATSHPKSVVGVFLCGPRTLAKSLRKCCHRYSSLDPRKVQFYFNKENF

[1] = biological target: Peroxisome proliferator-activated receptor gamma/Nuclear receptor coactivator 2 (Homo sapiens, UniProt P37231); type: functional;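 note: agonist potency for raising coactivator recruitment to the receptor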
[2] = biological target: Peroxisome proliferator-activated receptor gamma/Nuclear receptor coactivator 1 (Homo sapiens, UniProt P37231); type: functional;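 note: agonist potency as compounds enhance coactivator SRC-1 recruitment to PPARgamma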
[3] = biological target: Peroxisome proliferator-activated receptor gamma/Nuclear receptor coactivator 3 (Homo sapiens, UniProt P37231); type: functional;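 note: agonist potency for raising coactivator recruitment to the receptor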
[4] = antiviral protection against BTV-induced cell death – arbovirus, BSR cells, confirmation (AID 1250); type: functional;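 note: protection from viral cytopathic effect measured as cell viability by ATP luminescence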
Leucine aminopeptidase = biological target: T2, Leucine aminopeptidase (Plasmodium falciparum 3D7, UniProt Q8IL11); experiment: P. falciparum M17LAP inhibitors, primary screen, biochemical, fluorogenic H-Leu-NHMec substrate, 1536-well (AID 1619); type: functional
T2 sequence (Q8IL11 whole entry): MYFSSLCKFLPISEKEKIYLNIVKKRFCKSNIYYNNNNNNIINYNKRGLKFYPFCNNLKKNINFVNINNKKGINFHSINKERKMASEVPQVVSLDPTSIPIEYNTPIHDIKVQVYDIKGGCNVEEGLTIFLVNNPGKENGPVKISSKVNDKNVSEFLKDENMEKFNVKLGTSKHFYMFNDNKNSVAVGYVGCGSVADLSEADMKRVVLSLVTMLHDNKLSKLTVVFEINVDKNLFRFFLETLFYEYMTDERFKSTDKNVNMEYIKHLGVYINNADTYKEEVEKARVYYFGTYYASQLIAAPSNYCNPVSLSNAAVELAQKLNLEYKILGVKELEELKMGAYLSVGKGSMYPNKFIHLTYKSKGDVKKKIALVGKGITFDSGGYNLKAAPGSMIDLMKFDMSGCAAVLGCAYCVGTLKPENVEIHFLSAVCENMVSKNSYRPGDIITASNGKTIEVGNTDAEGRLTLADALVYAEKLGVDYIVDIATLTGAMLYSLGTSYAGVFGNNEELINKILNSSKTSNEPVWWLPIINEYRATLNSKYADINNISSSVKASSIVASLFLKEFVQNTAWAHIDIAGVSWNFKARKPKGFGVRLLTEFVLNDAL

[5] = alpha-synuclein stem-loop luciferase translation blockers – H4 neuroglioma cells, luminescence, confirmation (AID 1988); type: functional, cell-based
[6] = luciferase reporter signal suppression in cells – H4 neuroglioma cells, luminescence, dose response (AID 1990); type: functional, cell-based
Vero = experiment: cells; type: functional; settings: Chlorocebus sabaeus
[7] = Luminescence Cell-Based Dose Confirmation HTS to Identify Inhibitors of Polyadenylation.; type: functional
[8] = tested on: Streptococcus sp. 'group A'; experiment: Streptococcus pyogenes SK(-)GAS viability under kanamycin – luminescence, BacTiterGlo, confirmation, counter-screen for streptokinase expression inhibitor project, dose response (AID 1900); type: functional, organism-based
Streptococcus = experiment: GAS UMAA2166 growth inhibition – luminescence, BacTiterGlo, counter-screen for streptokinase expression inhibitor project, dose response (AID 1915); type: functional, organism-based;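 note: potency for reduction of bacterial viability or growth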
Streptokinase A = biological target: T3, Streptokinase A (Streptococcus pyogenes serotype M1, UniProt P10520); experiment: viability-normalized secreted streptokinase activity reduction – plasminogen activation absorbance, OD405, dose response (AID 1914); type: functional, Streptococcus pyogenes M1 GAS;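 note: secreted streptokinase activity via plasminogen activation per viability signal from cell pellet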
T3 sequence (P10520 whole entry): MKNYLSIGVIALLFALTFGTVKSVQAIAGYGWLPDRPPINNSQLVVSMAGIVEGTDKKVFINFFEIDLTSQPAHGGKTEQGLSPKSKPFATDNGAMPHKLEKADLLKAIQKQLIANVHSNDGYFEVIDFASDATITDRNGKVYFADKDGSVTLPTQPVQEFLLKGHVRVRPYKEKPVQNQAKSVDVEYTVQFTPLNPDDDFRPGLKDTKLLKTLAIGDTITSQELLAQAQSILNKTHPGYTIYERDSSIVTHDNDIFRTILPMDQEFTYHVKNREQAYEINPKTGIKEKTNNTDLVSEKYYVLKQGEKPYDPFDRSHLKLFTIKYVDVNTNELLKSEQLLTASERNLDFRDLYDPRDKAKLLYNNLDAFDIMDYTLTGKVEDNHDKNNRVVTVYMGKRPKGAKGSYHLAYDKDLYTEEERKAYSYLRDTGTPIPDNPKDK

[9] = Luminescence Cell-Based Dose Response HTS to Identify Inhibitors of 5'UTR Stem-Loop Driven Prion Protein mRNA Translation in H4 Neuroglioblastoma Cells. [Related pubchem assays: 1827 (Project Summary), 1813 (Primary HTS)]; type: functional
NS3 = NS3 (Hepatitis C virus, UniProt A3EZJ3); experiment: PubChem AID 2173; parameters: species or system Hepacivirus hominis
Cytochrome P450 2D6 = Cytochrome P450 2D6 (Homo sapiens, UniProt P10635);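 note: CYP2D6 member of a cytochrome P450 panel assay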
Cytochrome P450 2C19 = Cytochrome P450 2C19 (Homo sapiens, UniProt P33261); experiment: Cytochrome panel assay with activity outcomes. Panel member name: p450-cyp2c19 Compounds with AC50 equal or less than 10 uM are considered active; type: functional; settings: read-out: AC50
Insulin-degrading enzyme = biological target: T4, Insulin-degrading enzyme (Homo sapiens, UniProt P14735); experiment: Dose Response: Fluorescence polarization-based cell-based high throughput dose response assay for inhibitors of insulin-degrading enzyme (IDE). [Related pubchem assays: 434962 (Primary screen (IDE inhibitors in singlicate)), 449730 (Counterscreen (Cytotoxicity in triplicate)), 435028 (Confirmation (IDE inhibitors in triplicate)), 434984 (Summary …; type: functional
T4 sequence (P14735 whole entry): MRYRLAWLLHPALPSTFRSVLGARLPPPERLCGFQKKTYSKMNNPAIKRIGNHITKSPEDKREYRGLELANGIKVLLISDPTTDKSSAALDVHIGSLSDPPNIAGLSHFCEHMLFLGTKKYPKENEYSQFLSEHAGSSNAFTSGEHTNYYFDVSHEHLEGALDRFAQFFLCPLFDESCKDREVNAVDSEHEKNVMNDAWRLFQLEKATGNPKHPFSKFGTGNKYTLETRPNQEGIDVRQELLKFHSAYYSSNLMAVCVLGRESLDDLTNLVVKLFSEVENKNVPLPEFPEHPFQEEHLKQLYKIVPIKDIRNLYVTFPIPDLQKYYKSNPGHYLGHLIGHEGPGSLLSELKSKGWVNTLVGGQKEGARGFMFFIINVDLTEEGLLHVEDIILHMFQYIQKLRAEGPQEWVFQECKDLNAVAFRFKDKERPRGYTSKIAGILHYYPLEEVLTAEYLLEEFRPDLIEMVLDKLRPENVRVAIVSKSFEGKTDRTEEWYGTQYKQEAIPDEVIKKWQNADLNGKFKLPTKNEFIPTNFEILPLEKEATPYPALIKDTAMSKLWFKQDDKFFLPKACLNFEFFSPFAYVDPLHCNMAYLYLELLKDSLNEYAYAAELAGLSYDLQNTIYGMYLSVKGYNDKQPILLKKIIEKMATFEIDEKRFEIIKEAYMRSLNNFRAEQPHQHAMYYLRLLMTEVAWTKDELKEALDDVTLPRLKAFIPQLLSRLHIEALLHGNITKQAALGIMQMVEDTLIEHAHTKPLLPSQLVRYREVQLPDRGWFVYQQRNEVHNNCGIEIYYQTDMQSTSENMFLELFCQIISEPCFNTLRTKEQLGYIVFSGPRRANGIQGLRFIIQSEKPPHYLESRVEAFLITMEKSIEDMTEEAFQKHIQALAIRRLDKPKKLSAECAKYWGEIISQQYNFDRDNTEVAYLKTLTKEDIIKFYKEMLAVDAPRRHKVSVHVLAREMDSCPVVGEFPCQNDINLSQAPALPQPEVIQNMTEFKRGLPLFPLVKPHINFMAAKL

[10] = Counterscreen for IDE inhibitors: Luminescence-based cell-based high throughput dose response assay to identify compounds that are cytotoxic to HEK cells. [Related pubchem assays: 434962 (Primary screen (IDE inhibitors in singlicate)), 449730 (Counterscreen (Cytotoxicity in triplicate)), 435028 (Confirmation (IDE inhibitors in triplicate)) …; type: functional; settings: HEK293
Bcl-2-like protein 10 = biological target: T5, Bcl-2-like protein 10 (Homo sapiens, UniProt Q9HD36); experiment: Concentration-response of Bcl-B inhibitors by biochemical FP with TR3 (AID 1243); type: functional
T5 sequence (Q9HD36 whole entry): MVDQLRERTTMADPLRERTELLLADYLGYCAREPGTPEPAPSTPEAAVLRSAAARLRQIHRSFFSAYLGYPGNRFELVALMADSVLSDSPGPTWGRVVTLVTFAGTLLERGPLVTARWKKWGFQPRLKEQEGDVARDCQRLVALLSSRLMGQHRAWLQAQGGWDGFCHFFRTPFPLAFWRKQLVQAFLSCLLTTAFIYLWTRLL

Ion channel NompC = Ion channel NompC (Danio rerio, UniProt Q7T1G6); experiment: Fluorescence counterscreen assay for TRPML3 agonists: dose response cell-based high-throughput screening assay to identify agonists of the transient receptor potential channel N1 (TRPN1). [Related pubchem assays: 1526, 1424, 1448 ]; type: functional
Mucolipin-3 = biological target: T6, Mucolipin-3 (Homo sapiens, UniProt Q8TDD5); experiment: Dose response cell-based high-throughput screening assay for agonists of the transient receptor potential channel ML3 (TRPML3). [Related pubchem assays: 1526, 1424, 1448 ]; type: functional
T6 sequence (Q8TDD5 whole entry): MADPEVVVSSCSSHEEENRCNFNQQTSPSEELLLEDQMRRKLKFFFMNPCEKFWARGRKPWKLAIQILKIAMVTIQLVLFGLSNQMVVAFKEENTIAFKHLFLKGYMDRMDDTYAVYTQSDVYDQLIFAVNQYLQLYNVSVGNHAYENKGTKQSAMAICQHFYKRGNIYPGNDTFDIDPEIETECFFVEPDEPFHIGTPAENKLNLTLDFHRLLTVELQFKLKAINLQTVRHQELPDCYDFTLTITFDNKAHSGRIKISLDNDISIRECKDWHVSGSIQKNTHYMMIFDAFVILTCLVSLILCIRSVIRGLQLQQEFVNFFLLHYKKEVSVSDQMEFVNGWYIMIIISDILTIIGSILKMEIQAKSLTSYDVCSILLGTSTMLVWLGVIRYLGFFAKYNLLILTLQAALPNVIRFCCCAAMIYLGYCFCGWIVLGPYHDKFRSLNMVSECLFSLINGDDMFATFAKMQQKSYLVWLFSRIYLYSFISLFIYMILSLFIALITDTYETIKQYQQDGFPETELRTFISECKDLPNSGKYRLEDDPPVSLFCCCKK

Peroxisome proliferator-activated receptor gamma/Nuclear receptor coactivator 1, sequence (P37231 whole entry): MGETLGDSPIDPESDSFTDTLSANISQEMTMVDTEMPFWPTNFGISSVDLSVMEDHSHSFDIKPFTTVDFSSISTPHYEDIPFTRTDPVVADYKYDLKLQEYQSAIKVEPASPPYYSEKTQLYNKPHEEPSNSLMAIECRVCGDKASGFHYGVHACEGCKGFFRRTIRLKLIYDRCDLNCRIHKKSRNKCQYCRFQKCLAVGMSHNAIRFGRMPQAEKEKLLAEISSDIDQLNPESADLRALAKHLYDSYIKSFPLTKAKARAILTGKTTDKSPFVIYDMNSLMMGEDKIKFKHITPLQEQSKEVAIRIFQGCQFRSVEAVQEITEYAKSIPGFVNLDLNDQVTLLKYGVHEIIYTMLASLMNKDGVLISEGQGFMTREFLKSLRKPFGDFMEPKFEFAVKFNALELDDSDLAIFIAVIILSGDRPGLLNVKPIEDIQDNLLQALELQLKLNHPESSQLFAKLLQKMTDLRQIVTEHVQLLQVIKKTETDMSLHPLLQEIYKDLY
Peroxisome proliferator-activated receptor gamma/Nuclear receptor coactivator 1, sequence (Q15788 whole entry, further chain): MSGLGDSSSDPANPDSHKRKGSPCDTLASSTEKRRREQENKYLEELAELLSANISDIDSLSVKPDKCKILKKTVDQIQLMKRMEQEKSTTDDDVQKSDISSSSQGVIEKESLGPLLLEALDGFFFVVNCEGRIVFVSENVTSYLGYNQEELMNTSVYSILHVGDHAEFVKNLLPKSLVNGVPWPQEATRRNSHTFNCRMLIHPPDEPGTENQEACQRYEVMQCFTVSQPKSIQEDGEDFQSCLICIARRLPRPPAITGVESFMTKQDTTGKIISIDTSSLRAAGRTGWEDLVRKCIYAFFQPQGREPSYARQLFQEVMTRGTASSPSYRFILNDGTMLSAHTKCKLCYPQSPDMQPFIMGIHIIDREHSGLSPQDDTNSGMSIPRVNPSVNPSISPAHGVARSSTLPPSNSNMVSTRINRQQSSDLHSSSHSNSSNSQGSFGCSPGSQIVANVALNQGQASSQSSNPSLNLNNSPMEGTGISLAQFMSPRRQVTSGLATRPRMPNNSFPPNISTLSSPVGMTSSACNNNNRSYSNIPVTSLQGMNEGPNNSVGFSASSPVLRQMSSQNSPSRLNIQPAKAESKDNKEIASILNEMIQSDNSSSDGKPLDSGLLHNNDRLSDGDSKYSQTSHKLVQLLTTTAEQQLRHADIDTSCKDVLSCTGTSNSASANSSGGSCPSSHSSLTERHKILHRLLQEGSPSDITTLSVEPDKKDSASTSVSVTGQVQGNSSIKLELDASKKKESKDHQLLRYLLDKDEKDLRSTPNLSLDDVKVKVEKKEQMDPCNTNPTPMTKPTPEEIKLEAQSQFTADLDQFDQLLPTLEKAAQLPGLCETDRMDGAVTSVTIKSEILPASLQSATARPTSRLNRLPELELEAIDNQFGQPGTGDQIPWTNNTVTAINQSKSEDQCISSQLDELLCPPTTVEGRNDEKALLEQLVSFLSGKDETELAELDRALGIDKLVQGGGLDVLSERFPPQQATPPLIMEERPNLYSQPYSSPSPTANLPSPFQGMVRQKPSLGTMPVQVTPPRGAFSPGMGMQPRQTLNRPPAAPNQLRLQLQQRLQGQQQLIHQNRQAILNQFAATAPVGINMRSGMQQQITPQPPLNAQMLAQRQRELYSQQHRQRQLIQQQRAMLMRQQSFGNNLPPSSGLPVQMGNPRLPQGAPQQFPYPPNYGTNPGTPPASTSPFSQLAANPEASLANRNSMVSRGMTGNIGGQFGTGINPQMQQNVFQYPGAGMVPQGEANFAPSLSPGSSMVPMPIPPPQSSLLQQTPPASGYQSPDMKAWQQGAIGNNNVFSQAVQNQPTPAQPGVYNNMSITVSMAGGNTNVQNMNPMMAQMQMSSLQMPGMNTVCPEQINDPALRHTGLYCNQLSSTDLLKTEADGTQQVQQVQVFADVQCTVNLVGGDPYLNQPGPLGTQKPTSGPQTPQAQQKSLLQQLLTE
Peroxisome proliferator-activated receptor gamma/Nuclear receptor coactivator 2, sequence (P37231 whole entry): as the sequence (P37231 whole entry) above
Peroxisome proliferator-activated receptor gamma/Nuclear receptor coactivator 2, sequence (Q15596 whole entry, further chain): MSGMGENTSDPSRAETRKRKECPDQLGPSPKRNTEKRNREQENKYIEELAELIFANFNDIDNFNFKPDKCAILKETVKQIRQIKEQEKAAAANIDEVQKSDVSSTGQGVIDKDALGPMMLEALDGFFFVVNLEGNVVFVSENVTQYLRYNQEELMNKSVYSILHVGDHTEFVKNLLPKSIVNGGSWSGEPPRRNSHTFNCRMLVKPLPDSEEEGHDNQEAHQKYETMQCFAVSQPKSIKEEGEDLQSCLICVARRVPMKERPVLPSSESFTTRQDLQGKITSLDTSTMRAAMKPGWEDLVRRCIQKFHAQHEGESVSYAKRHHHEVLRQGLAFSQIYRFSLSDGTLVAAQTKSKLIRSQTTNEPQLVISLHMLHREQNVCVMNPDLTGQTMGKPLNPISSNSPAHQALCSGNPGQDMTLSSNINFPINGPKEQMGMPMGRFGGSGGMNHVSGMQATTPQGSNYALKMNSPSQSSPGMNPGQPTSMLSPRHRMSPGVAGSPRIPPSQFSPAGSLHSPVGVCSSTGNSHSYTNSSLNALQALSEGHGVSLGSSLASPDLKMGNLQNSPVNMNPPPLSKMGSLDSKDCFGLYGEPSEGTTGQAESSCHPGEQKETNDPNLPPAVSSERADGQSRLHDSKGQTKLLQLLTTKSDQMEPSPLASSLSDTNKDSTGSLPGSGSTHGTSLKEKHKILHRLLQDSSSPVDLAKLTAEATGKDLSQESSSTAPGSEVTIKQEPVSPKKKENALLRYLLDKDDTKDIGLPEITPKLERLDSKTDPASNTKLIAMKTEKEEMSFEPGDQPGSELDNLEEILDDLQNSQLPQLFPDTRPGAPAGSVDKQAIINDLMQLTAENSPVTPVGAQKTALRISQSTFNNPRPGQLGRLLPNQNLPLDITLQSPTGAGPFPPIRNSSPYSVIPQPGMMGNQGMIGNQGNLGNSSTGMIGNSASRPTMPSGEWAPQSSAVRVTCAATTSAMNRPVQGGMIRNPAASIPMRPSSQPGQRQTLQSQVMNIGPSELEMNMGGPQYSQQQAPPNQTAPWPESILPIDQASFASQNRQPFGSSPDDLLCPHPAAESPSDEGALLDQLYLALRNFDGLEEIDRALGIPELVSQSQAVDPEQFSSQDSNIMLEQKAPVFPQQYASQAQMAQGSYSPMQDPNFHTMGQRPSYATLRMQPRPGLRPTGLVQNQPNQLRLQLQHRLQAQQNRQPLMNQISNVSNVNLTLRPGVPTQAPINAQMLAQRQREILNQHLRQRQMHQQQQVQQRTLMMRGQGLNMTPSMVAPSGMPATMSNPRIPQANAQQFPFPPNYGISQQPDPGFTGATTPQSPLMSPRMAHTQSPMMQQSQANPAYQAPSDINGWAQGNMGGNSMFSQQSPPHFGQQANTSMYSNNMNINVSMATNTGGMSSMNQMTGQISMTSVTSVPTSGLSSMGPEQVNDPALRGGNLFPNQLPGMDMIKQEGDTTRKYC
Cytochrome P450 2C19, sequence (P33261 whole entry): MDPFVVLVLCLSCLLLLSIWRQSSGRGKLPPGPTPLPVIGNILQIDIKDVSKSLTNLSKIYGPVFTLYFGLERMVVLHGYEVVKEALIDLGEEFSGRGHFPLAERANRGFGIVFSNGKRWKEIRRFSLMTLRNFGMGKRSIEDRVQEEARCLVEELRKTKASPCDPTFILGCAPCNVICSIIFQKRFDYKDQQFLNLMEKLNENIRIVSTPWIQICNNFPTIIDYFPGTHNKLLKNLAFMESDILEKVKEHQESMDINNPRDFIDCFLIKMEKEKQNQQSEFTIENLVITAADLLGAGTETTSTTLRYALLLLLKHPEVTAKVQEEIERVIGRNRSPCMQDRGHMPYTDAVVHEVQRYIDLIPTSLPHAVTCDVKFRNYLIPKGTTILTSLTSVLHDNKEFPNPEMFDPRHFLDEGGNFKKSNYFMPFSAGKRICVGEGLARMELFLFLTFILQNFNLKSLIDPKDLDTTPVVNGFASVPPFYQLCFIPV
NS3, sequence (A3EZJ3 whole entry): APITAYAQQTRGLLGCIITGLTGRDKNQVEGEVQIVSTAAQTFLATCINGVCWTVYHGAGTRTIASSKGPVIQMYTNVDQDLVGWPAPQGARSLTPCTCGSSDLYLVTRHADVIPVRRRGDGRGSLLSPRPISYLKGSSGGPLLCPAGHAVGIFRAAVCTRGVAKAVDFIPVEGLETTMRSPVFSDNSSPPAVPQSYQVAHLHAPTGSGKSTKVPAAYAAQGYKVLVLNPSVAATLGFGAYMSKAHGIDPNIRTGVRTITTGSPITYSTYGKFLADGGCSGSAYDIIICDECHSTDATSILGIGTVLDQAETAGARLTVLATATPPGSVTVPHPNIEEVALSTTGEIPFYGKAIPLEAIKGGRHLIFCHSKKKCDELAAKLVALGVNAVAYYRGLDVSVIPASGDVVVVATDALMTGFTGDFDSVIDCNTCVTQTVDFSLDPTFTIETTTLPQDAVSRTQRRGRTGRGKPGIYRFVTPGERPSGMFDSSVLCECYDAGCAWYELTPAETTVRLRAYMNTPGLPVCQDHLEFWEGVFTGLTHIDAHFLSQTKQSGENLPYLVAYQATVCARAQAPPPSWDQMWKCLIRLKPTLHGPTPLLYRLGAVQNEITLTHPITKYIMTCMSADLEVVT

In the case of `COc1ccc2c(c1)Nc1ccccc1S2`, the IC50 (NADPH oxidase 1) is reported as 0.913 µM (active).
In the case of `COc1ccc(C(N)=NOC(=O)CN(C)S(=O)(=O)c2ccc(C)cc2)cc1`, the EC50 [1] is reported as > 79.4 µM (not active), the EC50 [2] is reported as > 79.4 µM (not active) and the EC50 [3] is reported as > 79.4 µM (not active).
In the case of `O=C(/C=C/c1ccco1)Nc1cc(Cl)ccc1C(=O)O`, the IC50 [4] is reported as 36.7 µM (active) and the IC50 (Leucine aminopeptidase) is reported as 74.4 µM (active).
For `Cc1c(C(=O)Nc2nonc2-c2ccc(F)cc2)oc2ccc(F)cc12`, the EC50 [5] was > 120 µM (not active), the EC50 [6] was > 120 µM (not active) and the CC50 (Vero) was 6.89 µM (active). The EC50 [7] was > 120 µM (not active), the EC50 [8] was 3.52 µM (active) and the EC50 (Streptococcus) was > 150 µM (not active). The EC50 (Streptokinase A) was 27.7 µM (active) and the EC50 [9] was 12.9 µM (active).
For `O=C(O)c1cccc(-n2c(/C=C/c3ccccc3)nc3ccccc3c2=O)c1`, the IC50 (NS3) was 12.3 µM (not active).
In the case of `COc1ccc2oc3cc(C)[n+]([O-])c(-c4ccc(Cl)cc4)c3c2c1`, the IC50 [4] is reported as > 100 µM (active).
With `CC(=O)c1cc(NC(=O)c2ccccc2)c(=O)oc1/C=C/N(C)C` the AC50 (Cytochrome P450 2D6) was 0.178 µM (inconclusive), the AC50 (Cytochrome P450 2C19) was 39.8 µM (inconclusive) and the IC50 (Insulin-degrading enzyme) was 8.93 µM (active). For the same compound, the IC50 [10] was > 55.7 µM (not active).
In the case of `O=C(O)c1cccc2c1NC(c1ccc([N+](=O)[O-])cc1)C1CC=CC21` (stereo not drawn), the EC50 (Bcl-2-like protein 10) is reported as 5.41 µM (active).
With `c1ccc(-c2nc(-c3ccccc3)c(-c3ccccc3)[nH]2)cc1` the IC50 (NADPH oxidase 1) was > 17 µM (not active).
In the case of `COC(=O)c1sccc1NC(=O)c1ccc(Br)s1`, the EC50 [1] is reported as < 8.82 µM (active), the EC50 [2] is reported as 8.67 µM (active) and the EC50 [3] is reported as 12.2 µM (not active).
For `O=C1C(=Cc2cn(Cc3ccc(Cl)cc3)c3ccccc23)C(=O)c2ccccc21`, the EC50 (Bcl-2-like protein 10) was 14.4 µM (active).
In the case of `Cc1ccc(S(=O)(=O)N2CCC(=O)N(C(COCc3ccc(C(F)(F)F)cc3)C(C)C)CC2)cc1` (stereo not drawn), the EC50 (Ion channel NompC) is reported as > 29.9 µM (not active) and the EC50 (Mucolipin-3) is reported as 3.92 µM (active).
